The target of one data set is T1, VMAT2 (Homo sapiens, UniProt Q05940).
T1 construct: from tissue; host or cells: brain (striatal regions, dopaminergic neurons) of living human subjects, in vivo PET
As to the kind of experiment: PET imaging of nigrostriatal dopaminergic neurons with ^18F-AV-133 (fused/simulated dual radiopharmaceutical images). In kind it is in vivo. The conditions noted are these: imaged between 70 and 80 minutes, simulated fused image. As for the experimental part: (§1) Data was generated from the radiopharmaceutical imaging of β-amyloid plaque and nigrostriatal dopaminergic degeneration utilizing dual radiopharmaceuticals. The radiopharmaceuticals utilized included ^18F-AV-45, which targets β-amyloid plaque and ^18F-AV-133, which targets nigrostriatal neurons. The radiopharmaceuticals were administered via intravenous injection to subjects who were clinically diagnosed with Parkinson's Disease (PD) or Alzheimer's Disease (AD).
(§2) Data was analyzed for PD patients (PD_AV133) and Healthy Controls (HC_AV133) as well as for AD patients (AD_AV45) and Healthy Controls (HC_AV45). Data and images derived from subjects in each category were analyzed individually. Data and images from an average of 4 subjects in each respective category was also analyzed and used as the basis of this protocol. The optimal imaging protocol was judged based on the following criteria: clarity of images/data in the cortical, grey, and white volumes of interest (VOIs) of the brain (relating to diagnosis of AD) and the striatal VOIs of the brain (relating to diagnosis of PD/DLB); ease and level of certainty of the individual diagnoses of the presence or absence of AD, PD, and DLB; minimum level of radiation injected into a patient; and minimum protocol completion time.
(§3) FIGS. 1, 4, 7 and 10 were created by the fusion of two separate image data sets, one from a PET scan of an ^18F amyloid plaque-binding radiopharmaceutical (^18F-AV-45) and one from a PET scan of an ^18F VMAT2 targeted radiopharmaceutical (^18F-AV-133). FIG. 1 is a simulated image of the brain of a healthy individual with no observable amyloid plaques and normal dopaminergic neurons (imaged between 70 and 80 minutes). […] This image pattern is consistent with a pure AD diagnosis, with no evidence of loss of striatal neurons (which would be observed if PD or DLB were also present). […] This image pattern is consistent with a pure PD diagnosis, without evidence of AD amyloid plaque pathology.
(§4) The Statistical Parametric Mapping (SPM2) application in MATLAB® (Version 7.3 R2006b, MathWorks, Inc.) was used to align the raw images and create a mean image from the image set. The mean image was normalized to a SPECT template, although in other experiments, other templates were used. Using the image viewer application in MRICro, the normalized mean image was compared with the template image to confirm that the two images align. […] Standardized uptake values (SUVs) were calculated from the counts extracted from the images. […]
(§5) The cortical regions are where amyloid plaques are found in the brain using the ^18F-AV-45 radiopharmaceutical, while the striatal regions contain dopaminergic neurons detected with the ^18F-AV-133 radiopharmaceutical. […]

Another data set has as its system β-amyloid plaque. Nature of the data set: PET imaging of β-amyloid plaque with ^18F-AV-45 (fused/simulated dual radiopharmaceutical images). The class given is in vivo, human. The conditions noted are these: imaged between 70 and 80 minutes, simulated fused image. As for the experimental part: as §1, §2, §3, §4, §5
Data set [1] is described as follows: Brain washout of first radiopharmaceutical in the dual imaging protocol. In kind it is in vivo, human. The conditions noted are these: 10 mCi intravenous; at second acquisition, 30 minutes after ^18F-AV-133 given about 50 minutes after start of protocol. From the text: The cortical regions are where amyloid plaques are found in the brain using the ^18F-AV-45 radiopharmaceutical, while the striatal regions contain dopaminergic neurons detected with the ^18F-AV-133 radiopharmaceutical. […] FIGS. 5 and 6 show simulated activity curves for cortical and striatal regions of the brain, respectively, for an individual with AD. FIGS. 8 and 9 show simulated activity curves for cortical and striatal regions of the brain, respectively, of an individual with PD while FIGS. 11 and 12 show simulated activity curves for cortical and striatal regions of the brain, respectively, of an individual with AD and PD. […] Whenever the two radiopharmaceuticals were considered as being simultaneously present in the brain, the SUVs from both radiopharmaceuticals for each region were summed together, and the summed SUVs were plotted. This allowed for the simulation/prediction of the interaction and possible interference of activity of one radiopharmaceutical with the other when both are present in the brain during the imaging of the subject.
Through analyzing and experimenting with the plots and images described above, a protocol for the simultaneous imaging of AD plaques and dopaminergic neuronal degeneration was created. […] The total protocol time was about 80 to 90 minutes. […]

Setting [2] is: FIG. 4, individual with clinical signs of AD.
[3] abbreviates: FIG. 7, individual exhibiting symptoms of PD.
Where [4] appears, read: FIG. 10, individual with both AD and PD.

T1 sequence (Q05940 whole entry): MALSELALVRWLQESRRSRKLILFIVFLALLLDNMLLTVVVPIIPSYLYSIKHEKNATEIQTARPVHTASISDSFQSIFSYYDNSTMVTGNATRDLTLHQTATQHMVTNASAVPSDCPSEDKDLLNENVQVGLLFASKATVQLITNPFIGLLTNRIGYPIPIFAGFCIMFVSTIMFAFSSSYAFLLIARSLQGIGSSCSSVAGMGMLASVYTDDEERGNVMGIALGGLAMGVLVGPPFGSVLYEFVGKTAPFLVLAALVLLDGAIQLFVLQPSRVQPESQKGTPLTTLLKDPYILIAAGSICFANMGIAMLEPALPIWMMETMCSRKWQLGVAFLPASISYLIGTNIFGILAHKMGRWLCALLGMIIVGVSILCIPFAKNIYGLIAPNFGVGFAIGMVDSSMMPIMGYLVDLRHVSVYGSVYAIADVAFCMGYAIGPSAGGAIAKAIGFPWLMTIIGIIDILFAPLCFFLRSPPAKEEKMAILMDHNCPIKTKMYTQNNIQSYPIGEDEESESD

`COc1cc2c(cc1OCCC[18F])CCN1C[C@@H](CC(C)C)[C@H](O)C[C@H]21` [^18F-AV-133, (2R,3R,11bR)-9-(3-[18F]fluoropropoxy)-3-isobutyl-10-methoxy-2,3,4,6,7,11b-hexahydro-1H pyrido[2,1a]isoquinolin-2-ol]: the “signal in the nigrostriatal region from ^18F-AV-133” value at VMAT2 (FIG. 1, healthy individual) is listed as “strong signal in the nigrostriatal region”. In addition, the “uptake of ^18F-AV-133 in the nigrostriatal region of the brain” value at VMAT2 (setting [2]) is recorded as “normal uptake”. Besides, the “intensity of ^18F-AV-133 in the striatal regions” value at VMAT2 (setting [3]) is given as “lack of intensity in the striatal regions”. For the same compound, the “uptake of AV-133 in the striatal regions” value at VMAT2 (setting [4]) is recorded as “diminished uptake”.

As to `CNc1ccc(/C=C/c2ccc(OCCOCCOCC[18F])nc2)cc1` [^18F-AV-45, (E)-4-(2-(6-(2-(2-(2-[^18F]fluoroethoxy)ethoxy)ethoxy)pyridin-3-yl)vinyl)-N-methylbenzenamine], in the data set with β-amyloid plaque (FIG. 1, healthy individual), the “cortical brain signal from ^18F-AV-45” value is reported as “no appreciable cortical brain signal”. In addition, the “^18F-AV-45 radiopharmaceutical signal (amyloid plaque deposits)” value in the data set on β-amyloid plaque (setting [2]) is listed as “Amyloid plaque deposits are visible in the frontal region of the brain”. Also, the “amyloid signal in the cortical brain regions from ^18F-AV-45” value in the data set with β-amyloid plaque (setting [3]) is “does not show evidence of amyloid signal in the cortical brain regions”. The “^18F-AV-45 retention (amyloid plaques)” value with β-amyloid plaque (setting [4]) is given as “retention in cortical brain”. In data set [1], the “washout and radioactive decay of ^18F-AV-45 from brain” value is given as “essentially complete”.

The values above are taken from patent US8557222B2, “Radiopharmaceutical imaging of neurodegenerative diseases” (priority 2008, dated 2013).
